Results from US8691842B2, “Pharmaceutical composition for preventing or treating rheumatoid arthritis, containing rebamipide” (Catholic University Industry Academic Cooperation Foundation, priority 2009, dated 2014).
Entries after “also recorded” stand apart in the source; their conditions may differ.

What was measured:
Assay type in all cases: in vivo, DBA/1J mice
[1] = system: collagen induced arthritis (CIA) animal model; assay: Average arthritis score in collagen induced arthritis (CIA) animals; conditions: CIA mice; rebamipide 0.6 mg/kg or 6 mg/kg orally, every other day, ten times; evaluated second to tenth week; FIG. 1
[2] = system: CII-specific immunoglobulin (total IgG); assay: Serologic test (ELISA) measuring collagen-specific antibody in serum of CIA animals; conditions: CIA mice, rebamipide orally, serum diluted 1:8000, FIG. 3
[3] = system: collagen induced arthritis (CIA) animal model; assay: Histological test of joints and cartilage in CIA animals; conditions: CIA mice, FIG. 2

SMILES: O=C(NC(Cc1cc(=O)[nH]c2ccccc12)C(=O)O)c1ccc(Cl)cc1 (stereo not shown) [rebamipide]
- arthritis score [1]: dose-dependently decreased; also recorded: gradually decreased
- level of Type II collagen-specific immunoglobulin (total IgG) in serum [2]: significantly decreased
- degree of joint and cartilage destruction ([3]; rebamipide 0.6 mg/kg or 6 mg/kg orally, sacrificed after 10 weeks, hematoxylin and eosin, toluidine blue, safranin O): remarkably reduced
- degree of cartilage destruction ([3]; rebamipide orally, histological assay): improved, being similar to that of a normal mouse
